From patent US20130065227A1, “METHODS OF INCREASING MACROPINOCYTOSIS IN CANCER CELLS” (priority 2010, published 2013)

Experiments:
[1] = test system: DU145 cells; experiment: Uptake of fluorophore-labeled oligonucleotides by flow cytometry; assay type: cell-based
Experimental: (§1) FIG. 1 are graphs showing that AS1411 cell internalization is an active process. Cells were plated 18 h before uptake analysis. After incubation as described, cells were washed with ice-cold PBS, incubated with 1 μg/ml 7-AAD, harvested and resuspended in 1% paraformaldehyde containing 2 μg/ml actinomycin D, then analyzed by flow cytometry. (Panel A) DU145 cells were incubated at 37° C. with fresh complete DMEM medium containing 10 μM FL-AS1411 (black line) or 10 μM FL-CRO (gray line) for the time indicated. (Panel B) DU145 cells were incubated for 2 h at 37° C. in complete or serum-free DMEM medium containing 10 μM FL-AS1411, or 10 μM FL-CRO, or no oligonucleotide. (Panel C) Various cell lines were incubated with 10 μM FL-AS1411 (black outline histogram), 10 μM FL-CRO (gray outline histogram) or without DNA (solid gray histogram) at 37° C. or 4° C. for 2 h. All experiments were repeated at least three times. Data are mean of three independent samples; bars, SE; *(p<0.05).
(§2) FIG. 2 are graphs showing that AS1411 is internalized by different endocytic mechanisms in DU145 cancer cells and in non-malignant Hs27 cells. DU145 or Hs27 cells were plated 18 h before uptake analysis. Cells were pre-treated as described with inhibitor (gray histogram) or the corresponding vehicle control (black histogram) before addition of 10 μM FL-AS1411 and incubation at 37° C. for 2 h. After incubation, cells were harvested and analyzed by flow cytometry. Pre-treatment conditions were at 37° C. with: (Panel A) 5 μM Cytochalasin D for 30 min; (Panel B) 80 μM Dynasore for 30 min; or (Panel C) 3 mM amiloride for 1 h. All experiments were repeated at least three times and representative data are shown. Solid gray histograms represent background autofluorescence of unstained cells.
DU145 cells were transfected for 48 h without siRNA (mock, M), or with 30 nM of one of three different nucleolin siRNAs (NCL1, NCL2, NCL3) or a control siRNA (scramble, S), or contransfected with 10 nM of each nucleolin siRNAs (mix). (Panel A) Cells were lysed and total cell lyses were analyzed by Western blotting using the antibodies shown. (Panel B) Cell-surface proteins from intact transfected DU145 cells were labeled covalently with membrane-impermeable biotinylating agent. Cells were lysed, then biotinylated plasma membrane proteins were captured with streptavidin-agarose beads and analyzed by blotting with anti-nucleolin antibody (upper panel). After stripping, the membrane was reprobed with antibodies for a plasma membrane marker (anti-pan Cadherin) and a nuclear marker (anti-histone 3) to confirm the fractionation. Total lysate (Lys) was used as control. (Panel C) The medium of transfected cells was replaced by fresh complete DMEM medium containing no oligonucleotide (gray dashed histogram) or 10 μM FL-CRO (gray solid line histogram) or 10 μM FL-AS1411 (black solid line histogram) and incubated at 37° C. for 2 h. After incubation, cells were harvested and analyzed by flow cytometry.
DU145 cells were plated 18 hr before uptake analysis. Cell medium was changed with fresh complete DMEM medium containing different concentrations of FL-AS1411 (black line) or FL-CRO (gray line), and incubated at 37° C. for 2 hrs. After incubation, cells were harvested and analyzed by flow cytometry.
FIG. 9 are graphs showing the effects of inhibitors on various endocytic pathways. DU145 or Hs27 cells were plated 18 hr before uptake analysis. (Panel A) DU145 cells were pre-treated with dynamin inhibitor, […] Dynasore (black histogram) or DMSO (gray histogram) for 30 min at 37° C. After pre-treatment, cells were treated with […] transferrin conjugated with Alexa Fluor 488 for 30 min at 37° C. (Panel B) DU145 and Hs27 cells were pre-treated with 3 mM amiloride (black histogram) or vehicle (serum-free medium, gray histogram) for 1 h at 37° C. After pre-treatment, FL-CRO was added at a concentration of 10 μM and incubated at 37° C. for 2 h. After incubation, cells were harvested and analyzed by FACS. […]

[2] = test system: cancer cells (DU145, HeLa, MDA-MB-231) and non-malignant Hs27 skin fibroblasts; experiment: Temperature-dependence of oligonucleotide uptake by flow cytometry; assay type: cell-based; details: 10 μM, 37° C. or 4° C. for 2 h, all cell types
Experimental: as §1, with “*(p<0.05). […]” for “*(p<0.05).”
To determine whether AS1411 uptake occurs through an active uptake process, the temperature-dependence of AS1411 uptake in cancer cells (DU145, HeLa, MDA-MB-231) and non-malignant Hs27 skin fibroblasts was evaluated using flow cytometry. […]

[3] = test system: DU145 cells; experiment: Confocal microscopy localization and co-localization; assay type: cell-based
Experimental: (§3) FIG. 3 are photographs showing that AS1411 co-localizes with the macropinocytic marker, dextran. DU145 or Hs27 cells were incubated with the reagents indicated, then washed and fixed. Nuclei were stained with DAPI (blue). The distribution of markers was visualized by confocal microscopy and fluorescent images were overlaid to determine co-localization as indicated by the yellow color. (Panel A) 10 μM AS1411 labeled with Alexa Fluor 488 (green) and 0.2 mg/ml dextran-10K, macropinocytic marker, labeled with Alexa Fluor 594 (red) for 2 h at 37° C. (Panel B) Experiments similar to those in Panel A but using FL-CRO in place of FL-AS1411. (Panel C) Cells incubated with 5 μg/ml transferrin labeled with Alexa Fluor 488 (green) and 0.2 mg/ml dextran-10K labeled with Alexa Fluor 594 (red) for 30 min at 37° C. (Panel D) DU145 cells incubated with 5 μg/ml transferrin labeled with Alexa Fluor 594 (red) and 10 μM AS1411 labeled with Alexa Fluor 488 (green) for 30 min at 37° C. Scale bars, 10 μm.
Cells (4×10^4) in fresh supplemented culture medium were plated on 18 mm diameter glass cover slips for 18 h. The media was removed and replaced with serum-free medium containing 10 μM oligodeoxynucleotide, dextran-10K, or transferrin and incubated as describe in the Description of the Drawings. After incubation, cells were washed 3 times with ice-cold PBS, fixed in 4% paraformaldehyde in PBS for 30 min at room temperature, and washed three times with PBS. After washing, the cover slips were mounted on glass slides with ProLong Antifade (Molecular Probes) according to the manufacturer's directions to inhibit photobleaching. Immunofluorescence was documented with an LSM 510 inverted confocal laser-scanning microscope (Carl Zeiss, Oberkochen, Germany) equipped with an Omnichrome argon-krypton laser. Images were obtained with a Zeiss Plan-Apo 63× oil immersion objective (1.4 NA).

[4] = test system: Hs27 cells; experiment: as above; assay type: cell-based, human; details: 10 μM, 0.2 mg/ml dextran-10K, 2 h at 37° C.
Experimental: as §3
Cells (4×10^4) in fresh supplemented culture medium were plated on 18 mm diameter glass cover slips for 18 h. The media was removed and replaced with serum-free medium containing 10 μM oligodeoxynucleotide, dextran-10K, or transferrin and incubated as describe in the Description of the Drawings. […]

[5] = test system: Hs27 cells; experiment: Uptake of fluorophore-labeled oligonucleotides by flow cytometry; assay type: cell-based, human; details: 80 μM dynasore, then 10 μM FL-AS1411 2 h
Experimental: as §1, §2
(§4) FIG. 9 are graphs showing the effects of inhibitors on various endocytic pathways. DU145 or Hs27 cells were plated 18 hr before uptake analysis. (Panel A) DU145 cells were pre-treated with dynamin inhibitor, […] Dynasore (black histogram) or DMSO (gray histogram) for 30 min at 37° C. After pre-treatment, cells were treated with […] transferrin conjugated with Alexa Fluor 488 for 30 min at 37° C. (Panel B) DU145 and Hs27 cells were pre-treated with 3 mM amiloride (black histogram) or vehicle (serum-free medium, gray histogram) for 1 h at 37° C. After pre-treatment, FL-CRO was added at a concentration of 10 μM and incubated at 37° C. for 2 h. After incubation, cells were harvested and analyzed by FACS. Gray solid histogram represents unstained cells.
To analyze uptake of the oligodeoxynucleotides or dextran-10K (macropinocytic marker) by flow cytometry, 2×10^5 cells in fresh supplemented culture medium (2.5 ml) were plated into 6-well plates for 18 h. […]

[6] = test system: DU145 cells; experiment: Transferrin uptake (clathrin-dependent endocytosis) by flow cytometry; assay type: cell-based; parameters: dose or concentration left out as unconfirmed; details: for 30 min, transferrin-Alexa Fluor 488 for 30 min
Experimental: as §4
To confirm that uptake of AS1411 occurs by endocytosis, the involvement of the actin cytoskeleton, which has been implicated in regulating endocytic pathways, was evaluated. To this end, DU145 and Hs27 cells were pre-treated with an actin polymerization inhibitor. 5 μM cytochalasin D, and assessed for FL-AS1411 uptake by flow cytometry. […]

[7] = 10 μM, 37° C., complete DMEM medium

Compound	earliest time at which uptake was detected [1, 7] [min]	time after which uptake is decreasing [1, 7] [h]	serum dependence of uptake ([1]; 10 μM, 2 h at 37° C., complete or serum-free DMEM medium)	temperature dependence of uptake [2]	co-localization with the macropinocytic marker, dextran ([3]; 10 μM, 0.2 mg/ml dextran-10K, 2 h at 37° C.)	subcellular localization ([3]; confocal microscopy, cancer and non-malignant cells)	co-localization with the macropinocytic marker, dextran [4]	effect of pre-treatment on FL-AS1411 uptake ([1]; 80 μM dynasore, then 10 μM FL-AS1411 2 h)	effect of pre-treatment on FL-AS1411 uptake [5]	effect of pre-treatment on uptake of transferrin [6]
5′-Fluor-d(TTTGGTGGTGGTGGTTGTGGTGGTGGTGG) [FL-AS1411]	5	> 8	independent of the presence of serum	strong temperature dependence	strongly co-localized	localized in confined structures in the cytoplasm	not in Hs27 cells			
O=C(N/N=C/c1ccc(O)c(O)c1)c1cc2ccccc2cc1O [dynasore]								slightly increased the uptake of FL-AS1411	decreased the uptake of AS1411	inhibited
